For this assay, the system named is L1210 leukemia ip in BDF1 mice, survival T/C. The experiment in a line: NCI In Vivo Anticancer Drug Screen. Data for tumor model L1210 Leukemia (intraperitoneal) in B6D2F1 (BDF1) mice. As to conditions: endpoint: mean survival time, higher = longer survival. The procedure, abridged:
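Antitumor effect is assessed in tumor-bearing animals. Survival in the compound arm is compared with a vehicle-dosed control arm and expressed as their quotient.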

The mark [1] stands for this setting: dose: 100.0 mg/kg/injection, schedule: Q01DX009 (ip), vehicle: Klucel (hydroxypropylcellulose) (HPC).
Setting [2] is: dose: 100.0 mg/kg/injection, schedule: Q04DX003 (ip), vehicle: other.
[3] abbreviates: dose: 200.0 mg/kg/injection, schedule: Q01DX009 (ip), vehicle: Klucel (hydroxypropylcellulose) (HPC).
Setting [4] is: dose: 200.0 mg/kg/injection, schedule: Q04DX003 (ip), vehicle: other.
[5] abbreviates: dose: 400.0 mg/kg/injection, schedule: Q01DX009 (ip), vehicle: Klucel (hydroxypropylcellulose) (HPC).
Setting [6] is: dose: 400.0 mg/kg/injection, schedule: Q04DX003 (ip), vehicle: other.
[7] abbreviates: dose: 50.0 mg/kg/injection, schedule: Q01DX009 (ip), vehicle: saline with Tween-80.
Where [8] appears, read: dose: 100.0 mg/kg/injection, schedule: Q04DX003 (ip), vehicle: Klucel (hydroxypropylcellulose) (HPC).
[9] abbreviates: dose: 100.0 mg/kg/injection, schedule: Q01DX009 (ip), vehicle: saline with Tween-80.
Setting [10] is: dose: 200.0 mg/kg/injection, schedule: Q01DX009 (ip), vehicle: saline with Tween-80.
Where [11] appears, read: dose: 400.0 mg/kg/injection, schedule: Q01DX009 (ip), vehicle: saline with Tween-80.
Setting [12] is: dose: 200.0 mg/kg/injection, schedule: Q04DX003 (ip), vehicle: Klucel (hydroxypropylcellulose) (HPC).
Setting [13] is: dose: 400.0 mg/kg/injection, schedule: Q04DX003 (ip), vehicle: Klucel (hydroxypropylcellulose) (HPC).

Each structure is given as a SMILES string. Several values for one entry are separate records, joined by “and”; a condition that tells them apart may be missing. Identical values can stand only once. Toxic doses and inconclusive results are not listed.

The source of these data is PubChem BioAssay AID248 (DTP/NCI, 2004).

Regarding `COc1cc(C(=O)O)c(Br)c(OC)c1OC`, the T/C by setting is: (dose: 100.0 mg/kg/injection, schedule: Q01DX001 (ip), vehicle: saline with Tween-80) 103 % of control; (dose: 200.0 mg/kg/injection, schedule: Q01DX001 (ip), vehicle: saline with Tween-80) 101 % of control; (dose: 400.0 mg/kg/injection, schedule: Q01DX001 (ip), vehicle: saline with Tween-80) 114 % of control.
For the molecule `CC1=C(C)CC2(C)N(C)CC2(C)C1` (stereo unspecified), the T/C (dose: 37.0 mg/kg/injection, schedule: Q04DX003 (ip), vehicle: other) was 104 % of control; the T/C (dose: 37.5 mg/kg/injection, schedule: Q01DX009 (ip), vehicle: other) was 110 % of control; the T/C (dose: 75.0 mg/kg/injection, schedule: Q01DX001 (ip), vehicle: other) was 107 % of control; the T/C (dose: 75.0 mg/kg/injection, schedule: Q01DX009 (ip), vehicle: other) is 100 % of control; the T/C (dose: 75.0 mg/kg/injection, schedule: Q04DX003 (ip), vehicle: other) was 101 % of control; the T/C (dose: 150.0 mg/kg/injection, schedule: Q01DX001 (ip), vehicle: other) is 115 % of control. The T/C was 93 % of control (dose: 150.0 mg/kg/injection, schedule: Q01DX009 (ip), vehicle: other) and 106 % of control (dose: 150.0 mg/kg/injection, schedule: Q04DX003 (ip), vehicle: other).
On to `CC(C)NCCOC(=O)c1ccc(N)cc1`, for which the T/C (dose: 75.0 mg/kg/injection, schedule: Q01DX001 (ip), vehicle: saline) is 102 % of control and the T/C (dose: 150.0 mg/kg/injection, schedule: Q01DX001 (ip), vehicle: saline) is 105 % of control.
Take `CC(=O)OCC(=O)[C@@]1(O)CC[C@H]2[C@@H]3C[C@H](C)C4=CC(=O)C=C[C@]4(C)[C@@]3(Br)[C@@H](O)C[C@@]21C`: the T/C reads like this: (dose: 50.0 mg/kg/injection, schedule: Q01DX001 (sc), vehicle: steriod suspending solution) 101 % of control; (dose: 100.0 mg/kg/injection, schedule: Q01DX001 (sc), vehicle: steriod suspending solution) 109 % of control; (dose: 200.0 mg/kg/injection, schedule: Q01DX001 (sc), vehicle: steriod suspending solution) 106 % of control; (dose: 400.0 mg/kg/injection, schedule: Q01DX001 (sc), vehicle: steriod suspending solution) 104 % of control.
For `CC(C)C(O)c1cnc(OCc2ccccc2)nc1OCc1ccccc1` (stereo unspecified), the T/C under setting [1] is 96 % of control; the T/C under setting [2] is 98 % of control; the T/C under setting [3] is 101 % of control; the T/C under setting [4] was 103 % of control; the T/C under setting [5] was 101 % of control; the T/C under setting [6] was 103 % of control.
Consider `CCOC(=O)CCOc1ccccc1N(CCCl)CCCl`, for which the T/C runs as follows: (dose: 1.2 mg/kg/injection, schedule: Q01DX Z (ip), vehicle: methylcellulose (MC)) 110 % of control and 121 % of control; (dose: 2.4 mg/kg/injection, schedule: Q01DX Z (ip), vehicle: methylcellulose (MC)) 110 % of control and 113 % of control; (dose: 3.13 mg/kg/injection, schedule: Q01DX009 (ip), vehicle: other) 115 % of control; (dose: 4.7 mg/kg/injection, schedule: Q01DX Z (ip), vehicle: methylcellulose (MC)) 108 % of control and 111 % of control; (dose: 6.2 mg/kg/injection, schedule: Q01DX001 (ip), vehicle: carboxymethylcellulose (CMC)) 109 % of control; (dose: 8.7 mg/kg/injection, schedule: Q01DX Z (ip), vehicle: methylcellulose (MC)) 178 % of control. Further, the T/C is 100 % of control and 120 % of control (dose: 9.4 mg/kg/injection, schedule: Q01DX Z (ip), vehicle: methylcellulose (MC)); 106 % of control (dose: 12.5 mg/kg/injection, schedule: Q04DX003 (ip), vehicle: other); 161 % of control (dose: 13.0 mg/kg/injection, schedule: Q01DX Z (ip), vehicle: methylcellulose (MC)); 109 % of control (dose: 22.0 mg/kg/injection, schedule: Q01DX001 (ip), vehicle: carboxymethylcellulose (CMC)); 124 % of control (dose: 25.0 mg/kg/injection, schedule: Q01DX001 (ip), vehicle: carboxymethylcellulose (CMC)); 110 % of control (dose: 25.0 mg/kg/injection, schedule: Q01DX009 (ip), vehicle: saline sonified). Also, the T/C is 106 % of control (dose: 25.0 mg/kg/injection, schedule: Q04DX003 (ip), vehicle: other); 109 % of control (dose: 33.0 mg/kg/injection, schedule: Q01DX001 (ip), vehicle: carboxymethylcellulose (CMC)); 201 % of control (dose: 44.0 mg/kg/injection, schedule: Q01DX Z (ip), vehicle: methylcellulose (MC)); 114 % of control (dose: 50.0 mg/kg/injection, schedule: Q01DX009 (ip), vehicle: saline sonified); 162 % of control under setting [7]; 159 % of control (dose: 66.0 mg/kg/injection, schedule: Q01DX Z (ip), vehicle: methylcellulose (MC)). Further, the T/C was 112 % of control (dose: 75.0 mg/kg/injection, schedule: Q01DX001 (ip), vehicle: carboxymethylcellulose (CMC)); 86 % of control (dose: 75.0 mg/kg/injection, schedule: Q01DX Z (ip), vehicle: methylcellulose (MC)); 109 % of control (dose: 100.0 mg/kg/injection, schedule: Q01DX Z (ip), vehicle: methylcellulose (MC)); 90 % of control under setting [8].
Consider `Cc1ccc(S(=O)(=O)N/N=C/c2c(O)ccc3ccccc23)cc1`, for which the T/C was 87 % of control under setting [9]; 96 % of control (dose: 100.0 mg/kg/injection, schedule: Q04DX003 (ip), vehicle: saline with Tween-80); 89 % of control under setting [10]; 94 % of control (dose: 200.0 mg/kg/injection, schedule: Q04DX003 (ip), vehicle: saline with Tween-80); 91 % of control under setting [11]; 94 % of control (dose: 400.0 mg/kg/injection, schedule: Q04DX003 (ip), vehicle: saline with Tween-80).
As to `O=C(Nc1cccc(C(F)(F)F)c1)Nc1cc([N+](=O)[O-])ccc1Cl`, the T/C by setting is: (dose: 50.0 mg/kg/injection, schedule: Q01DX009 (ip), vehicle: Klucel (hydroxypropylcellulose) (HPC)) 96 % of control; under setting [1], 97 % of control and 108 % of control; under setting [3], 89 % of control; under setting [5], 88 % of control.
Regarding `CN1CCCC1=O`, the T/C is 91 % of control under setting [7], 88 % of control under setting [9] and 102 % of control under setting [10].
Regarding `CCCCCCCSCCSCCSCCCCCCC`, the T/C under setting [8] is 101 % of control, the T/C under setting [12] is 95 % of control and the T/C under setting [13] is 95 % of control.
Turning to `O=C(NCc1cnccn1)c1ccc(Cl)c(Cl)c1`, the T/C reads like this: under setting [9], 98 % of control; under setting [10], 98 % of control; under setting [11], 106 % of control.
`O=[N+]([O-])c1cccc(C=Nc2cccc(C(F)(F)F)c2)c1`: the T/C was 109 % of control under setting [1]; 110 % of control under setting [8]; 98 % of control under setting [3]; 110 % of control under setting [12]; 101 % of control under setting [13].
`Cc1ccc2ccccc2c1N(CC(=O)O)S(=O)(=O)c1ccccc1`: the T/C reads like this: (dose: 100.0 mg/kg/injection, schedule: Q04DX003 (ip), vehicle: saline sonified) 93 % of control; (dose: 200.0 mg/kg/injection, schedule: Q04DX003 (ip), vehicle: saline sonified) 102 % of control; (dose: 400.0 mg/kg/injection, schedule: Q04DX003 (ip), vehicle: saline sonified) 101 % of control.
Turning to `S=c1c2ccccc2sn1-c1ccccc1`, the T/C (dose: 100.0 mg/kg/injection, schedule: Q01DX001 (ip), vehicle: carboxymethylcellulose (CMC)) is 92 % of control; the T/C (dose: 200.0 mg/kg/injection, schedule: Q01DX001 (ip), vehicle: carboxymethylcellulose (CMC)) was 94 % of control; the T/C (dose: 400.0 mg/kg/injection, schedule: Q01DX001 (ip), vehicle: carboxymethylcellulose (CMC)) is 87 % of control.
With `COC(=O)/C=C(/Oc1cccc(C)c1)C(=O)OC`, the T/C under setting [2] was 101 % of control, the T/C under setting [4] is 96 % of control and the T/C under setting [6] was 96 % of control.
On to `OCC1CC(n2cnc3c(NO)ncnc32)C(O)C1O` (stereo unspecified), for which the T/C (dose: 25.0 mg/kg/injection, schedule: Q01DX009 (ip), vehicle: saline with Tween-80) is 103 % of control; the T/C under setting [7] is 92 % of control; the T/C (dose: 75.0 mg/kg/injection, schedule: Q01DX009 (ip), vehicle: saline with Tween-80) was 86 % of control.
